Data as given in patent publication EP4616862A1, “ANTIVIRAL C[…] DERIVED FROM NUCLEIC ACID AND PHARMACEUTICALLY ACCEPTABLE SALTS THEREOF” (priority 2022, dated 2024).

Columns and labels:
[1] = tested on: African Swine Fever Virus (ASFV, China/2018/AnhuiXCGQ); test: microbe, parasite or virus in culture; type: cell-based; settings: for IC50: African swine fever virus, 48 h, read-out: IC50 (ASFV infection inhibition concentration)
[2] = tested on: Classical Swine Fever Virus (CSFV); test: microbe, parasite or virus in culture; type: cell-based; settings: for IC50: Classical swine fever virus, PK-15, 48 h, read-out: IC50 (CSFV infection inhibition concentration)
[3] = tested on: Low pathogenic avian influenza virus (LPAIV, H9N2); test: microbe, parasite or virus in culture; type: cell-based; settings: unidentified influenza virus, H9N2, MDCK, 48 h, read-out: IC50 (LPAIV infection inhibition concentration)
[4] = tested on: Canine coronavirus (CCoV); test: microbe, parasite or virus in culture; type: cell-based; settings: for IC50: Alphacoronavirus 1, A-72, 48 h, read-out: IC50 (CCoV infection inhibition concentration)
Canine adenovirus (CAV) = test: CAV infection inhibition in Vero cells (qPCR of viral DNA); type: cell-based; settings: for SI (selectivity index): CAV, CC50/IC50; for IC50: Canine mastadenovirus A, 48 h, Vero cell line, CAV 100 TCID50/well, simultaneous treatment, 2 days, qPCR, read-out: IC50 (CAV infection inhibition concentration)
[5] = tested on: Canine distemper virus (CDV); test: microbe, parasite or virus in culture; type: cell-based; settings: for IC50: canine distemper virus, Vero, 72 h, read-out: IC50 (CDV infection inhibition concentration)
Feline parvovirus (FPV) = test: microbe, parasite or virus in culture; type: cell-based; settings: for IC50: Feline parvovirus, CRFK, 48 h, read-out: IC50 (FPV infection inhibition concentration)
Feline Calicivirus (FCV) = test: microbe, parasite or virus in culture; type: cell-based; settings: for IC50: Feline calicivirus, CRFK, 24 h, read-out: IC50 (FCV infection inhibition concentration)
FIPV = FIPV infection inhibition in FCWF-4 cells (RT-qPCR); type: cell-based, Feline Infectious peritonitis virus; settings: for IC50: Alphacoronavirus 1, 48 h, FCWF-4 cell line, FIPV 100 TCID50/well, simultaneous treatment, 2 days, RT-qPCR, read-out: IC50 (FIPV infection inhibition concentration); for SI (selectivity index): FIPV, CC50/IC50
[6] = tested on: foot and mouth disease virus (FMDV); test: microbe, parasite or virus in culture; type: cell-based; settings: for IC50: Foot-and-mouth disease virus, BHK-21, 36 h, read-out: IC50 (FMDV infection inhibition concentration)
[7] = Cytotoxicity (CCoV example); type: cell-based, canine; settings: dog, a-72 cells; Table 4 (CCoV); cell line for cytotoxicity not given
[8] = Cytotoxicity (CAV example); type: cell-based, monkey; settings: monkey, vero cells; Table 5 (CAV); cell line for cytotoxicity not given
[9] = Cytotoxicity (CDV example); type: cell-based, monkey; settings: monkey, vero cells; Table 6 (CDV); cell line for cytotoxicity not given
[10] = Cytotoxicity (FPV example); type: cell-based, feline; settings: cat, crfk cells; Table 7 (FPV); cell line for cytotoxicity not given
[11] = Cytotoxicity (FCV example); type: cell-based, feline; settings: cat, crfk cells; Table 8 (FCV); cell line for cytotoxicity not given
[12] = Cytotoxicity (FIPV example); type: cell-based, feline; settings: cat, fcwf-4 cells; Table 9 (FIPV); cell line for cytotoxicity not given
ISG15 = type: cell-based, Pig
Mx1 = type: cell-based, Pig
RNaseL = type: cell-based, Pig
in vitro [13] = settings: pig, pam cells
in vitro [14] = settings: pig, pk15 cells
in vitro [15] = settings: dog, mdck
in vitro [16] = settings: hamster, bhk-21 cells

Compound	SI (selectivity index) [1]	IC50 [1] [mM]	SI (selectivity index) [2]	IC50 [2] [mM]	IC50 [3] [mM]	SI (selectivity index) [4]	IC50 [4] [mM]	SI (selectivity index) (Canine adenovirus (CAV))	IC50 (Canine adenovirus (CAV)) [mM]	SI (selectivity index) [5]	IC50 [5] [mM]	SI (selectivity index) (Feline parvovirus (FPV))	IC50 (Feline parvovirus (FPV)) [mM]	SI (selectivity index) (Feline Calicivirus (FCV))	IC50 (Feline Calicivirus (FCV)) [mM]	IC50 (FIPV) [mM]	SI (selectivity index) (FIPV)	SI (selectivity index) [6]	IC50 [6] [mM]	CC50 [7] [mM]	also measured
Nc1nc2c(ncn2[C@@H](CO)OC(CO)CO)c(=O)[nH]1 [Acyclic diol-Guanosine, acyclic diol form of guanosine]	> 37.0	< 0.27	> 2.8	< 3.61	< 1.34	> 4.5	< 2.24	> 2.4	< 4.13	> 4.7	< 2.12	> 1.9	< 0.53	> 75.1	< 0.133	< 1.51	> 6.6	> 4.9	< 2.06	> 10	CC50 [8]: > 10 mM; CC50 [9]: > 10 mM; CC50 [10]: > 10 mM; CC50 [11]: > 10 mM; CC50 [12]: > 10 mM; Fold change (multiple increase compared to control group) ISG15 (ISG15): 4.2 (±1.5); Fold change (multiple increase compared to control group) Mx1 (Mx1): 4.0 (±1.2); Fold change (multiple increase compared to control group) RNaseL (RNaseL): 3.0 (±0.8); CC50 (in vitro [13]): > 10 mM; CC50 (in vitro [14]): > 10 mM; CC50 (in vitro [15]): > 10 mM; CC50 (in vitro [16]): > 10 mM
O=c1[nH]cnc2c1ncn2[C@@H](CO)OC(CO)CO [Acyclic diol-Inosine, acyclic diol form of inosine]	> 28.3	< 0.353	> 5.7	< 1.75	< 1.81	> 7.9	< 1.27	> 5.6	< 1.78	> 3.7	< 2.7	> 5.4	< 1.87	> 27.6	< 0.362	< 0.872	> 11.5	> 8.3	< 1.2	> 10	CC50 [8]: > 10 mM; CC50 [9]: > 10 mM; CC50 [10]: > 10 mM; CC50 [11]: > 10 mM; CC50 [12]: > 10 mM; Fold change (multiple increase compared to control group) ISG15 (ISG15): 6.3 (±0.4); Fold change (multiple increase compared to control group) Mx1 (Mx1): 2.8 (±0.9); Fold change (multiple increase compared to control group) RNaseL (RNaseL): 2.0 (±0.3); CC50 (in vitro [13]): > 10 mM; CC50 (in vitro [14]): > 10 mM; CC50 (in vitro [15]): > 10 mM; CC50 (in vitro [16]): > 10 mM
